Reference: publication PMC9252588 (Drug Design, Development and Therapy, 2022)

Assays:
[1] = test system: rat liver microsomes (RLMs); experiment: Enzymatic kinetics of axitinib inhibition of buspirone metabolism in RLMs; type: in vitro ADME
[2] = Pharmacokinetic pre-experiment: ritonavir before buspirone in rats; type: in vivo; settings: ritonavir (positive inhibitor) administered before buspirone
[3] = test system: buspirone 6′-hydroxylation (formation of 6′-OH buspirone); experiment: in vitro; settings: rat, rat liver microsomes
[4] = test system: buspirone N-dealkylation (formation of 1-PP); experiment: in vitro; settings: rat, rat liver microsomes
[5] = in vivo; cited from earlier work
[6] = Pharmacokinetics of buspirone and metabolites with or without axitinib in rats; type: in vivo, Sprague–Dawley rats; settings: increased to % of group A

## CNC(=O)c1ccccc1Sc1ccc2c(/C=C/c3ccccn3)n[nH]c2c1 [axitinib]
[1]; buspirone 6′-hydroxylation
  α value: 2.139
[1]; buspirone N-dealkylation
  α value: 5.434

## CC(C)c1nc(CN(C)C(=O)N[C@H](C(=O)N[C@@H](Cc2ccccc2)C[C@H](O)[C@H](Cc2ccccc2)NC(=O)OCc2cncs2)C(C)C)cs1 [ritonavir]
[2]
  blood concentrations of buspirone: extremely high blood concentrations of buspirone
  symptoms compared with the control: symptoms of inhibition of respiration and near-death

## O=C1CC2(CCCC2)CC(=O)N1CCCCN1CCN(c2ncccn2)CC1 [buspirone, 8-(4-(4-(2-pyrimidinyl)-1-piperizinyl)butyl)-8-azaspiro(4,5)decane-7,9-dione]
[3]
  Km at 40 min: 23 µM
[4]
  Km at 40 min: 26.3 µM
[5]
  absorbed in the alimentary canal: ~100%
[6]
  AUC(0-t), group B compared with group A: 530%
  Cmax, group B compared with group A: 420%
  Tmax, group B compared with group A: 150%
